Legend:
[1] = test system: BMDC/CD4+ T-cell cocultures; experiment: T cell cytokine release in BMDC/T-cell cocultures; type: cell-based, mouse; conditions: BMDCs pretreated with 10 μM, CD4+ T cells, 72 h
Description: To evaluate the adjuvant potential of the two most-promising desmuramylpeptides, 68 and 75, in terms of their effects on DC-mediated activation of CD4^+ and CD8^+ T cells, we used an in vitro antigen-presentation assay with C57BL/6 mouse bone-marrow-derived DCs (BMDCs). Following stimulation with 68 and 75 (1 or 10 μM) in the presence of ovalbumin soluble protein (50 μg/mL), BMDCs were cocultured with carboxyfluorescein succinimidyl ester (CFSE)-labeled naive ovalbumin-specific CD4^+ or CD8^+ T cells, which were isolated from splenocytes of OT II and OT I transgenic mice, respectively. After 3 days of coculture, CD25 (α subunit of IL-2 receptor)[108] expression was determined, along with the CFSE dilution, as markers of T-cell activation and proliferation, respectively. […]
Supernatants from CD4^+ and CD8^+ T cells after 72 h of co-incubation with BMDCs (pretreated with desmuramylpeptides [10 μM] and washed) were collected as described above. The cytokine concentrations were determined with the Cytometric Bead Array Mouse Th1/Th2/Th17 Cytokine Kit (contents: IL-2, IL-4, IL-6, IFN-γ, TNF, IL-17A, IL-10; BD Bioscience) on an Attune NxT flow cytometer (Thermo Fisher Scientific, Waltham, MA, U.S.A.). […] The data were analyzed using the FlowJo (Tree Star, Inc., Ashland, OR, U.S.A.) and Prism (GraphPad, San Diego, CA, U.S.A.) software. […]

NOD2 = biological target: T1, NOD2 (Homo sapiens, UniProt Q9HC29); experiment: HEK-Blue NOD2 cell line reporter assay (NF-κB-inducible SEAP); type: cell-based; conditions: for EC50 / NOD2 activity at 2 μM (fold increase): HEK-Blue NOD2 cells; for NOD2 activity at 2 μM (fold increase): NF-κB transcriptional (SEAP) activity relative to 0.1% DMSO
T1 construct: host or cells: HEK-Blue NOD2 cells (HEK293-derived)
T1 sequence (Q9HC29 whole entry): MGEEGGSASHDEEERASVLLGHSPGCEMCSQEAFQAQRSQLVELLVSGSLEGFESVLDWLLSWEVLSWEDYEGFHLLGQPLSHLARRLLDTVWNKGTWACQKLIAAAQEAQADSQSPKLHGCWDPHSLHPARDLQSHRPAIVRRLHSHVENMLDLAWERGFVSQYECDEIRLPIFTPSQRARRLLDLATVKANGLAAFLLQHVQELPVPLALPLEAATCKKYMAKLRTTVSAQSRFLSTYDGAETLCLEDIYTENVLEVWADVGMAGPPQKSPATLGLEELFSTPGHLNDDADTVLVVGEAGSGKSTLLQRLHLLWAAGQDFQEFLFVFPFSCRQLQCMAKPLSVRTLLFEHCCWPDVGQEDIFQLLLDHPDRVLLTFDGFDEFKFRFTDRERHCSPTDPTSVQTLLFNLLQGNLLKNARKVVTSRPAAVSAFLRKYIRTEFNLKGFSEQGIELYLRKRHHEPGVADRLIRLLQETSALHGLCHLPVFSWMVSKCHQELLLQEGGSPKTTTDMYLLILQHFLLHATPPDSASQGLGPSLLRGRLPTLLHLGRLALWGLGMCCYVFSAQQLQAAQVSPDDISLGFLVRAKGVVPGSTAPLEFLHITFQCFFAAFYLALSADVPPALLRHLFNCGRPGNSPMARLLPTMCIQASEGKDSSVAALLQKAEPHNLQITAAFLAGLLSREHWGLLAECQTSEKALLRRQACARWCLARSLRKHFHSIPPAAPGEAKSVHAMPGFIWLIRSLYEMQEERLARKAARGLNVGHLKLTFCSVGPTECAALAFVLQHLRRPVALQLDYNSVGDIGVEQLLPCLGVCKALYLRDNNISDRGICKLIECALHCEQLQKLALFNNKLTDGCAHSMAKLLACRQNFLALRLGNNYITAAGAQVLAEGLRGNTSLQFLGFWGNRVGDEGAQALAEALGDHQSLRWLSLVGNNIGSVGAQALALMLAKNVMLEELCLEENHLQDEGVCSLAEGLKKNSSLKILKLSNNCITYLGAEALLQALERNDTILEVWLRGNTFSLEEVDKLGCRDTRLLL

[2] = test system: K562 chronic myelogenous leukemia cells; experiment: PBMC cytotoxicity assay against K562 cells (flow cytometry); type: cell-based
Description: (§1) In the present study, we examined these desmuramylpeptides in terms of potentiation of the cytotoxic activity of the PBMCs against cancer cells. To this end, we used a previously described flow-cytometry-based cytotoxicity assay where PBMCs are co-incubated with fluorescently labeled cancer cells.[89] As indicated above, the NOD2-mediated NK cell activity originates from both the direct effects of NOD2 agonists on NK cells and the indirect activation through cytokine release by other NOD2-responsive cells, including monocytes. Thus, we used the whole PBMC population as the effector cells, rather than isolated NK cells, to provide conditions that would be closer to the in vivo environment, wherein the immune responses can be reinforced by interactions between the distinct immune cell subpopulations. Two malignant cell lines were used as the target cells in a 40:1 effector to target cell ratio: MEC1 B-chronic lymphocytic leukemia cells, and K562 chronic myelogenous leukemia cells. The K562 cells are considered a “classic” NK cell target, as they lack the expression of major histocompatibility complex (MHC) class I that is required for NK cell inhibition.[90]
(§2) The PBMC cytotoxicity assays using K562 and MEC1 cells were performed as described previously, with some modifications.[89] PBMCs were seeded (4 × 10^5 cells/well) in 96-well plates and treated with compounds (0.1–10 μM) or vehicle (0.1% DMSO) for 18 h. The K562 or MEC1 cells were stained with CFSE (Invitrogen, Carlsbad, CA, U.S.A.), washed twice with complete medium, and added (1 × 10^4 cells/well) to pretreated PBMCs for a final effector cell to target tumor cell ratio of 40:1. After a 4 h co-incubation (37 °C, 5% CO2), cells were stained with Sytox blue dead cell stain (Invitrogen) and analyzed using an Attune NxT flow cytometer (Thermo Fisher Scientific, Waltham, MA, U.S.A.) and the FlowJo software (Tree Star, Inc., Ashland, OR, U.S.A.). Cells that were positive for both CFSE and Sytox blue were defined as dead K562 and MEC1 cells. PBMCs alone and the CFSE-labeled cancer cells alone were also treated with the compounds at the same concentrations and stained with Sytox blue to determine any direct cytotoxicity of the compounds toward the PBMCs and cancer cells. The experiments were run in duplicate and repeated as three independent biological replicates. Statistical significance was determined by one-way ANOVA followed with Dunnett’s multiple comparisons test.

[3] = test system: MEC1 B-chronic lymphocytic leukemia cells; experiment: PBMC cytotoxicity assay against MEC1 cells (flow cytometry); type: cell-based
Description: as §1
as §2, with “Cells that were positive for both CFSE and Sytox blue were defined as dead K562 and MEC1 cells. PBMCs alone and the CFSE-labeled cancer cells alone were also treated with the compounds at the same concentrations and stained with Sytox blue to determine any direct cytotoxicity of the compounds toward the PBMCs and cancer cells. The experiments were run in duplicate and repeated as three independent biological replicates.” left out

[4] = 18 h, 7 or 8 concentrations 1 nM to 20 μM, mean ± SEM
[5] = 10 μM, 18 h pretreatment, 4 h co-incubation, 40:1

Row | Compound | Levels of IL-2, IL-6, IFN-γ, TNF-α and IL-17A in coculture supernatants [1] | Levels of Th2-associated IL-4 and IL-10 in coculture supernatants [1] | EC50 (NOD2) | NOD2 activity at 2 μM (fold increase) (NOD2; 18 h, mean ± SEM) | EC50 (NOD2; [4]) | Improvement in potency over 32 (NOD2; ratio of EC50 versus compound 32) | Boost to the cytotoxicity of PBMCs against K562 cells [2, 5] | Boost to the cytotoxicity of PBMCs against MEC1 cells [3, 5] | Diminished activity by a factor, relative to 74 (NOD2; ratio of EC50 versus compound 74) | Boost to the cytotoxicity of PBMCs against K562 cells ([2]; 100 nM) | Boost to the cytotoxicity of PBMCs against K562 cells ([2]; 1 μM) | Boost to the cytotoxicity of PBMCs against MEC1 cells ([3]; 100 nM)
1 | COc1cc(/C=C/C(=O)NCC(=O)N[C@H](C(=O)N[C@H](CCC(=O)OC2CCCC2)C(=O)OC2CCCC2)C(C)C)ccc1O [Compound 68, Dicyclopentyl ((E)-3-(4-Hydroxy-3-methoxyphenyl)acryloyl)glycyl-L-valyl-D-glutamate] | elevated levels | unaffected levels |  |  |  |  |  |  |  |  |  | 
2 | CCCCCCCCCCCCCCCCCC(=O)Oc1ccc(/C=C/C(=O)NCC(=O)N[C@H](C(=O)N[C@H](CCC(=O)OCC)C(=O)OCC)[C@@H](C)O)cc1OC [Compound 81, Diethyl ((E)-3-(3-Methoxy-4-(stearoyloxy)phenyl)acryloyl)glycyl-L-threonyl-D-glutamate] |  |  | 1450 nM | 1.96 ± 0.01 fold increase | 1450 ± 150 nM | 10 fold | devoid of activity | devoid of activity |  |  |  | 
3 | CCCCCCCCCCCCCCCCCC(=O)Oc1ccc(/C=C/C(=O)NCC(=O)N[C@H](C(=O)N[C@H](CCC(=O)OCC)C(=O)OCC)C(C)C)cc1OC [Compound 75, Diethyl ((E)-3-(3-Methoxy-4-(stearoyloxy)phenyl)acryloyl)glycyl-L-valyl-D-glutamate] |  |  | 2830 nM | 2.37 ± 0.01 fold increase | 2830 ± 206 nM |  | significant boost | significant boost | 90 | no effects were seen against either cell line | still significant | no effects were seen against either cell line

— PMC8279416, “Structural Fine-Tuning of Desmuramylpeptide NOD2 Agonists Defines Their In Vivo Adjuvant Activity” (Journal of Medicinal Chemistry, 2021)
